Experimental data reported in US12611416B2, “Methods of treating ischemic stroke at risk for cerebral or cerebellar edema” (REMEDY PHARMACEUTICALS, INC., priority 2024, dated 2026).

Test system: large hemispheric infarction (LHI) patients at high risk for cerebral edema
Assay: CHARM trial: intravenous glibenclamide in large hemispheric infarction, 90-day mRS shift analysis
Type: in vivo, human
Conditions: for common odds ratio (cOR), 90-day mRS: versus placebo; for lesion volume at which cOR crosses the "no effect" point (cOR=1.0): 90-day mRS, mRS 5 and 6 combined
Source text: The CHARM trial evaluated the safety and efficacy of intravenous glibenclamide as a treatment for large hemispheric infarction (LHI) patients at high risk for cerebral edema.
Patients meeting the following criteria were included: • A clinical diagnosis of acute ischemic stroke in the middle cerebral artery (MCA) territory. • A large hemispheric infarction defined as; lesion volume of 80 to 300 centimeters cubed (cm^3) on magnetic resonance imaging (MRI) diffusion-weighted imaging (DWI), or computed tomography perfusion (CTP), or an Alberta Stroke Program Early CT Score (ASPECTS) of 1 to 5 with involvement of at least 2 defined cortical regions. • Screening National Institutes of Health Stroke Scale (NIHSS) >=10. • At the time of randomization, and in the Investigator's judgement, it must be feasible for study drug treatment infusion to be initiated no later than 10 hours after time of symptom onset, if known, or the time last known normal. • Participants who wake with stroke may be included if neurological and other exclusion criteria are satisfied. The time of stroke onset is to be taken as the midpoint between sleep onset (or last known to be normal) and time of waking. • For participants who receive thrombectomy, inclusion into the study must be based on post-thrombectomy MRI-DWI.
Patients meeting the following criteria were excluded: • Participant is likely to have supportive care withdrawn on the first day. • Commitment to decompressive craniectomy (DC) prior to enrollment. • Evidence of concurrent infarction in the contralateral hemisphere sufficiently serious so as to affect functional outcome. Pre-Specified Primary Endpoint • Modified Rankin Scale (mRS) score at 90 days analyzed as a shift analysis using a 5-category ordinal scale with 0/1 and 5/6 collapsed. The primary efficacy analysis was pre-specified to be conducted in participants 18-70 years of age (inclusive) who were randomized and receive study treatment (the modified intent-to-treat [mITT] population].
Five hundred thirty-five subjects were enrolled, with 268 treated with placebo and 267 treated with intravenous glyburide. The mITT population (the primary analysis population), those participants aged […] years who received any study drug, consisted of 431 subjects.
An interaction term between treatment arm and stroke volume was included in an ordinal logistic regression model with 90-day mRS as the dependent variable. Independent variables included age, sex, baseline NIHSS, world region, tissue plasminogen activator, and thrombectomy.

Q: What does the source list for COc1ccc(Cl)cc1C(=O)NCCc1ccc(S(=O)(=O)NC(=O)NC2CCCCC2)cc1 [glibenclamide]?
A: common odds ratio (cOR), 90-day mRS (mITT subjects given glyburide in combination with thrombectomy (n=81), 95% CI 1.10-20.1, p=0.037): 4.69; lesion volume at which cOR crosses the "no effect" point (cOR=1.0) (mITT subjects with CTP or DWI baseline volume): about 140 cm^3; lesion volume at which cOR crosses the "no effect" point (cOR=1.0) (mITT subjects with CTP or DWI baseline volume, listed as glyburide): approximately 140 cm^3; common odds ratio (cOR), 90-day mRS (mITT subjects with CTP or DWI baseline volume, lesion volume less than 85 cm^3, ordinal logistic regression, mRS 0/1 and 5/6 collapsed): about 6; common odds ratio (cOR), 90-day mRS (mITT, baseline stroke volume ≤120 cm^3 subgroup, 95% CI 1.07-5.01, p=0.034): 2.31
